This is an account of results in paper PMC11111691, “Cystine-knot peptide inhibitors of HTRA1 bind to a cryptic pocket within the active site region” (Nature Communications, 2024).

Entries after “also recorded” stand apart in the source; their conditions may differ. Positions of bridges follow the written chain, without caps; N, C: chain ends. Residues, ends and D or L forms follow the SMILES beside them. No end group written: not given here.

One data set deals with T1, HTRA1^FL (Homo sapiens, UniProt Q92743).
T1 construct: Human full-length HTRA1 (HTRA1^FL, Q23-P480); made in house; host or cells: Trichoplusia ni cells
T1 sequence (Q92743 23-480): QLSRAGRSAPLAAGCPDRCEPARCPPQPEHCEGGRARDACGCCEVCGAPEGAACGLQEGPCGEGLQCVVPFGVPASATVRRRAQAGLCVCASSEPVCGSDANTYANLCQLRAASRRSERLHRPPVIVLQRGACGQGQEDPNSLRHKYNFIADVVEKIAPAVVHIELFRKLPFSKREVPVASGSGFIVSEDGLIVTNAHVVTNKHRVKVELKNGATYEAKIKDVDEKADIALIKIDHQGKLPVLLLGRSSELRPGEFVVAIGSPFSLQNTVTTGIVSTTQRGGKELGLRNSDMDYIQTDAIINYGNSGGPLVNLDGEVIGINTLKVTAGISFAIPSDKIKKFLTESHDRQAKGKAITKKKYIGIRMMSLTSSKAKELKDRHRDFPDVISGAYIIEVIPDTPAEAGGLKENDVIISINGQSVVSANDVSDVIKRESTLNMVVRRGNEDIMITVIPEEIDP
Briefly: HTRA1^FL enzyme inhibition assay with synthetic substrate H2-OPT. Format: biochemical. How it is done: (§1) Assays with the fluorescence-quenched synthetic substrate Mca-IRRVSYSFK(Dnp)K (H2-OPT)[38],[60] were carried out essentially as described. CKP stock solutions in DMSO were diluted in TNC buffer (dilution series for IC50 determinations, or final concentration of 2 µM for selectivity assay or as indicated for HTRA1/4 mutants) and incubated with enzymes in 96-well black optical bottom plates for 60 min at 37 °C. For selectivity experiments we used the 7mer-ABP as inhibitor, which was incubated with the proteases for 15 min at 37 °C. A 10 mM stock solution of H2-OPT in DMSO was diluted with water, prewarmed at 37 °C and then added to the CKP-enzyme mixtures. The final concentrations in the reaction mixtures were: 1 nM HTRA1^FL, 3 nM HTRA1^PD/PDZ, 1 nM HTRA1^PD, 1 nM HTRA2^PD/PDZ, 3 nM HTRA3^FL, 60 nM HTRA3^PD/PDZ, 6 nM HTRA4^FL, 1 µM HTRA4^PD/PDZ, 1 nM mouse HTRA1^PD, 25 nM HTRA1^PD-A202Y, 1 µM HTRA4^PD/PDZ-Y200A, 0.5 mM 7mer-ABP, 5 µM H2-OPT, and 0.25% DMSO. The kinetics of substrate cleavage was measured at 37 °C on a SpectraMax M5 microplate reader with excitation of 328 nm and emission of 393 nm. The determined initial rates of cleavage were expressed as percent of control (DMSO control) after subtracting the baseline rates (without enzyme). IC50 values were determined by Sigmoidal 4PL modeling of multiple data points from serial dilutions of CKPs using Prism 9 software (GraphPad). For selectivity assays with HTRA1-4^PD/PDZ constructs, the specific activities of the enzymes and enzyme:CKP inhibitor ratios were as follows: HTRA1^PD/PDZ, 12560 mRFU/min/nM – 1:667; HTRA2^PD/PDZ, 32300 mRFU/min/nM – 1:2000; HTRA3^PD/PDZ, 962 mRFU/min/nM – 1:33; HTRA4^PD/PDZ, 18 mRFU/min/nM – 1:2.

The target of the next data set is T2, HTRA1^PD(SA) (Homo sapiens, UniProt Q92743, S328A).
T2 construct: The protease domains of human HTRA1 (HTRA1^PD; D161-K379); made in house; host or cells: E. coli
T2 sequence (Q92743 161-379 S328A): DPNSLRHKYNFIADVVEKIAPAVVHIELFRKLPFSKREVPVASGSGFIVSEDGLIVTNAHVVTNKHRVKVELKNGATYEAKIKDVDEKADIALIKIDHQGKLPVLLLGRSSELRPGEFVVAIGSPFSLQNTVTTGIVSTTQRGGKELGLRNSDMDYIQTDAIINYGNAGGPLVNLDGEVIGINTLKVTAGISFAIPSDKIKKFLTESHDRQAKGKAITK
Briefly: SPR binding kinetics to HTRA1^PD(SA). To be noted: mean ± S.D. of three or more independent experiments. The protocol: Surface plasmon resonance (SPR) experiments were performed using a Biacore S200 instrument at 25 °C. His-tagged HTRA proteins were captured on a CM5 sensor chip using the His-capture kit (GE Healthcare). Protein concentrations used for immobilization were as follows; HTRA1^PD(SA), HTRA1^PD and HTRA1^PD-ABP 2 µg/ml with 60-s injections at 10 µl/min, HTRA2^PD/PDZ, HTRA3^PD/PDZ, and HTRA4^PD/PDZ 4 µg/ml with 60-s injections at 10 µl/min. Approximate immobilization levels of HTRA proteins were as follows; HTRA1^PD(SA) 700 RU, HTRA1^PD 900 RU, HTRA1^PD-ABP 900 RU, HTRA2^PD/PDZ 500 RU, HTRA3^PD/PDZ 500 RU, HTRA4^PD/PDZ 500 RU. All CKPs were prepared in HBS-EP buffer (0.01 M HEPES pH 7.4, 0.15 M NaCl, 3 mM EDTA, 0.005% v/v Surfactant P20). All CKP concentrations were injected for 120 s at a flow rate of 30 μl/min. A reference channel was subtracted from the HTRA-captured channel.
Binding kinetics of peptides to HTRA1^PD(SA) were determined by flowing six serial three-fold dilutions of peptide over the HTRA1^PD(SA) immobilized surface using a single cycle kinetics model. CKP maximum concentrations were as follows: 1A7, 1A8, 1C10, 2D5, and 3A7, 300 nM; 1G10-ENI and 1D3-ENI, 100 nM; 3B3, 3000 nM; and CPI, 10,000 nM. Data were analyzed using GE BIA evaluation software using a 1:1 Langmuir binding model. The KD values, calculated from the determined kon and koff values, were the mean ± S.D. of 3–4 independent experiments.
A general note: Surface plasmon resonance follows binding to a sensor surface in real time, without labels.

The target of the next data set is T3, HTRA4^PD/PDZ, HTRA4^FL (Homo sapiens, UniProt P83105).
T3 construct: purchased Abcam (FL form); the PD/PDZ form was made in house in E. coli ab134444
T3 sequence (P83105 32-476): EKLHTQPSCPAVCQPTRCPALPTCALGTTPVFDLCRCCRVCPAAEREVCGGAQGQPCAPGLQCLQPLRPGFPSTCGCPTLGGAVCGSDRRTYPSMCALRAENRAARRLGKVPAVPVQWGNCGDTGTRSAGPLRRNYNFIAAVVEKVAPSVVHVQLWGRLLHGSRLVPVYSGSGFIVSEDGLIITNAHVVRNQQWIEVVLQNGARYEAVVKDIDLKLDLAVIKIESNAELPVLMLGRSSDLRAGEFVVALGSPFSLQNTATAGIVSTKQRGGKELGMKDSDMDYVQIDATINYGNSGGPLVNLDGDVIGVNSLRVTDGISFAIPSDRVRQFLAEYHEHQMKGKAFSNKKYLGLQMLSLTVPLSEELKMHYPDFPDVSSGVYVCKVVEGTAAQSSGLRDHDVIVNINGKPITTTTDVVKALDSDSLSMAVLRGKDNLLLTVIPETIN
Briefly: H2-OPT selectivity assay, HTRA4. In kind it is biochemical. The settings on record: 6 nM HTRA4^FL, 2 µM CKP; p<0.001 vs DMSO. The protocol:
as §1

A further data set in a line: CKP stability assay. To be noted: chemical stability, PBS containing 0.15% DMSO, 0.3 mM (~1 mg/ml), 37 °C, LC-MS, HPLC UV 220 nm peak area normalized to DMSO peak, two independent experiments, preliminary. Format: physicochemical. The protocol:
The CKPs 1G10 and 1G10-ENI were incubated in PBS containing 0.15% DMSO at a concentration of 0.3 mM (~1 mg/ml) at 37 °C for 30 days. Samples from two independently performed experiments were frozen at −20 °C until further analysis. Thawed samples were diluted in H2O and injected into LC-MS (Agilent). From the HPLC UV trace (at 220 nm) the CKP peak area was normalized to the DMSO peak area from the same run. The values obtained from multiple HPLC runs were averaged and shown as dot plot.

The mark [1] stands for this setting: SPR Biacore S200, 25 °C, single cycle kinetics, 1:1 Langmuir model.
[2] abbreviates: SPR, calculated from kon and koff, CPI up to 10 µM.

For orientation: IC50 means the concentration that inhibits the measured activity by half. A higher IC50 goes with a need for much substance. As usually defined, the Kd is the constant that tells how readily two partners part at equilibrium.

`CC[C@H](C)[C@H](NC(=O)[C@H](CCC(N)=O)NC(=O)[C@H](CCCNC(=N)N)NC(=O)[C@H](CC(C)C)NC(=O)CNC(=O)[C@H](Cc1c[nH]c2ccccc12)NC(=O)CNC(=O)[C@@H]1CSSC[C@@H]2NC(=O)[C@H](CC(=O)O)NC(=O)[C@H](CC(=O)O)NC(=O)[C@H](Cc3c[nH]cn3)NC(=O)[C@H]([C@@H](C)O)NC(=O)[C@H](CCCCN)NC(=O)[C@@H]3CSSC[C@H](NC(=O)[C@H]([C@@H](C)O)NC(=O)[C@H](CCC(N)=O)NC(=O)[C@H](CSSC[C@H](NC(=O)[C@@H](NC(=O)[C@@H]4CCCN4C(=O)[C@H](CC(=O)O)NC(=O)[C@H](C)NC(=O)[C@@H](N)Cc4c[nH]cn4)[C@@H](C)CC)C(=O)N[C@@H](CC(N)=O)C(=O)N[C@@H](CCCCN)C(=O)N4CCC[C@H]4C(=O)N3)NC(=O)[C@H](Cc3ccccc3)NC(=O)[C@H](Cc3c[nH]c4ccccc34)NC(=O)[C@H](C)NC(=O)CNC(=O)[C@H](CO)NC2=O)C(=O)N[C@@H](Cc2ccc(O)cc2)C(=O)N[C@@H](Cc2ccc(O)cc2)C(=O)N[C@@H](C)C(=O)N[C@@H]([C@@H](C)O)C(=O)N[C@@H](Cc2c[nH]c3ccccc23)C(=O)N[C@@H](CO)C(=O)N1)C(=O)N[C@@H](CC(=O)O)C(N)=O` [1A8] (H-HADPICNKPCKTHDDCSGAWFCQTCYYATWSCGWGLRQID-NH2; disulfide 6-22, 10-25, 16-32) gave an IC50 against HTRA1^FL of 1.9 ± 0.15 nM. Besides, at HTRA1^PD(SA) (setting [1]), the koff came out at 0.5 ± 0.1 s-1 x10-4 and the kon is reported as 8.2 ± 3.5 M-1 s-1 x104. Moreover, on HTRA1^PD(SA) (setting [2]), the equilibrium dissociation constant (Kd) was 0.66 ± 0.42 nM. Further, on HTRA4^PD/PDZ, HTRA4^FL, the “Reduction of HTRA4^FL activity, H2-OPT” value is given as 13%.
With “YPVDPICNKPCKTHDDCSGAWFCQTCYYATWSCGWGLRQID-NH2 (disulfide 7-23, 11-26, 17-33) [1G10]”, in “CKP stability assay”, the “Stability: intact peptide after 30 days” value is recorded as “no change in peptide mass at 30 days; also recorded: highly stable”.
Turning to `CC[C@H](C)[C@H](NC(=O)[C@@H]1CCCN1C(=O)[C@H](CC(=O)O)NC(=O)[C@H](C)NC(=O)[C@@H](N)Cc1c[nH]cn1)C(=O)N[C@H]1CSSC[C@@H]2NC(=O)[C@H](Cc3ccccc3)NC(=O)[C@H](Cc3c[nH]c4ccccc34)NC(=O)[C@H](C)NC(=O)CNC(=O)[C@H](CO)NC(=O)[C@@H]3CSSC[C@@H](C(=O)NCC(=O)N4CCC[C@H]4C(=O)N[C@@H](Cc4ccc(O)cc4)C(=O)N[C@H](C(=O)NCC(N)=O)C(C)C)NC(=O)[C@H]([C@@H](C)O)NC(=O)[C@H](CCCNC(=N)N)NC(=O)[C@H](C)NC(=O)[C@H](CO)NC(=O)[C@H](CC(N)=O)NC(=O)[C@H](Cc4c[nH]c5ccccc45)NC(=O)[C@H](CSSC[C@H](NC(=O)[C@@H]4CCCN4C(=O)[C@H](CCCCN)NC(=O)[C@H](CC(N)=O)NC1=O)C(=O)N[C@@H](CCCCN)C(=O)N[C@@H]([C@@H](C)O)C(=O)N[C@@H](Cc1c[nH]cn1)C(=O)N[C@@H](CC(=O)O)C(=O)N[C@@H](CC(=O)O)C(=O)N3)NC(=O)[C@H](C)NC(=O)[C@H](CCC(N)=O)NC2=O` [CPI, reference compound] (H-HADPICNKPCKTHDDCSGAWFCQACWNSARTCGPYVG-NH2; disulfide 6-22, 10-25, 16-32), the “Inhibition of HTRA1^FL activity (inhibition curves)” value at HTRA1^FL (H2-OPT substrate, Fig. 1b) is “no activity”. Besides, the KD result on HTRA1^PD(SA) (setting [2]) was “No binding”.
`CC[C@H](C)[C@H](NC(=O)[C@H](CCC(N)=O)NC(=O)[C@H](CCCNC(=N)N)NC(=O)[C@H](CC(C)C)NC(=O)CNC(=O)[C@H](Cc1c[nH]c2ccccc12)NC(=O)CNC(=O)[C@@H]1CSSC[C@@H]2NC(=O)[C@H](CC(=O)O)NC(=O)[C@H](CC(=O)O)NC(=O)[C@H](Cc3c[nH]cn3)NC(=O)[C@H]([C@@H](C)O)NC(=O)[C@H](CCCCN)NC(=O)[C@@H]3CSSC[C@H](NC(=O)[C@H]([C@@H](C)O)NC(=O)[C@H](CCC(N)=O)NC(=O)[C@H](CSSC[C@H](NC(=O)[C@@H](NC(=O)[C@@H]4CCCN4C(=O)[C@H](CC(=O)O)NC(=O)[C@H](C)NC(=O)[C@@H](N)Cc4c[nH]cn4)[C@@H](C)CC)C(=O)N[C@@H](CC(N)=O)C(=O)N[C@@H](CCCCN)C(=O)N4CCC[C@H]4C(=O)N3)NC(=O)[C@H](Cc3ccccc3)NC(=O)[C@H](Cc3c[nH]c4ccccc34)NC(=O)[C@H](C)NC(=O)CNC(=O)[C@H](CO)NC2=O)C(=O)N[C@@H](Cc2ccc(O)cc2)C(=O)N[C@@H](Cc2ccc(O)cc2)C(=O)N[C@@H](C)C(=O)N[C@@H](CO)C(=O)N[C@@H](Cc2c[nH]c3ccccc23)C(=O)N[C@@H](CO)C(=O)N1)C(=O)N[C@@H](CC(=O)O)C(N)=O` [1A8.L5.2] (H-HADPICNKPCKTHDDCSGAWFCQTCYYASWSCGWGLRQID-NH2; disulfide 6-22, 10-25, 16-32) came in with an IC50 against HTRA1^FL of 2 ± 0.2 nM.
